Assay results from BindingDB's records for patent US11440899 (Merck Patent GmbH, 2022).

What was measured:
[1] = target: T1, Serine/threonine-protein kinase TBK1 (Homo sapiens, UniProt Q9UHD2); experiment: TBK Biochemical Assay
T1 sequence (Q9UHD2 whole entry): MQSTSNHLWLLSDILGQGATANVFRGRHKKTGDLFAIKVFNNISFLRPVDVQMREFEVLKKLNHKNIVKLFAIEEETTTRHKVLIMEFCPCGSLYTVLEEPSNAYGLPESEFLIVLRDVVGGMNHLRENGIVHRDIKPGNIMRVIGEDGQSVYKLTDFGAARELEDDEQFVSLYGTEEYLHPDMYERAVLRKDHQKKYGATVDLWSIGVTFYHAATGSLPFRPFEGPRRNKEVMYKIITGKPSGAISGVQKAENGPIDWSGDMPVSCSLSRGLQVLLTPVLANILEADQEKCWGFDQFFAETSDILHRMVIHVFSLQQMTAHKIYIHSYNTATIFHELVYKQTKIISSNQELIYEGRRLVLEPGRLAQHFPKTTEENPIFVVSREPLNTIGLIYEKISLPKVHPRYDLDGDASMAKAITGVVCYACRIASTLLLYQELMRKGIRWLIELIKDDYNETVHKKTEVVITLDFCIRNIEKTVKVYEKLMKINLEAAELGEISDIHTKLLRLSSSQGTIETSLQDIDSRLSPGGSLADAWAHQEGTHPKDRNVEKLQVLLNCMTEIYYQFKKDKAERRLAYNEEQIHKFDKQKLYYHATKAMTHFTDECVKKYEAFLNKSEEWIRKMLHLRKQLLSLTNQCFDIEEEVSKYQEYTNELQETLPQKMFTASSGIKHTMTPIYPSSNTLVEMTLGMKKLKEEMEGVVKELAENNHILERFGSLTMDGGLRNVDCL
Procedure: (§1) Test compounds were transferred into Labcyte polypropylene 384 well plates (P055-25) and diluted to 3 mM using DMSO. 3 mM test compounds were dispensed using Labcyte ECHO dose response module into Greiner 784075 plates (columns 3-12 and 13-22, 10 point 1:4) so that high concentration was 30 uM final. 100 uM of a reference compound (1 uM final high concentration). Backfilling was performed if necessary so that all wells contain 1% DMSO final:add 75 nl DMSO/well into columns 1, 2 and 24 using Labcyte Echo.add 75 nl 1.0 mM staurosporine/well into column 23 using Labcyte Echo (10 uM final)add 4.5 ul enzyme/well using multidrop dispenseradd 3 ul substrate/well using multidrop dispenserincubate at 25° C. in Heidolph incubator for 90 min.add 7.5 ul 2× stop buffer using multidrop dispenserread on labchip ez reader II using TBK1.jobRaw data files were opened in the Caliper LabChip Reviewer program (Version 3.0.265.0 SP2) and peak assignments were adjusted to reflect substrate first with the software's post-run analysis options. A spline-fit baseline was applied using the software's analysis algorithm.

[2] = target: T2, Inhibitor of nuclear factor kappa-B kinase subunit epsilon (Homo sapiens, UniProt Q14164); experiment: IKKe Biochemical Assay
T2 sequence (Q14164 whole entry): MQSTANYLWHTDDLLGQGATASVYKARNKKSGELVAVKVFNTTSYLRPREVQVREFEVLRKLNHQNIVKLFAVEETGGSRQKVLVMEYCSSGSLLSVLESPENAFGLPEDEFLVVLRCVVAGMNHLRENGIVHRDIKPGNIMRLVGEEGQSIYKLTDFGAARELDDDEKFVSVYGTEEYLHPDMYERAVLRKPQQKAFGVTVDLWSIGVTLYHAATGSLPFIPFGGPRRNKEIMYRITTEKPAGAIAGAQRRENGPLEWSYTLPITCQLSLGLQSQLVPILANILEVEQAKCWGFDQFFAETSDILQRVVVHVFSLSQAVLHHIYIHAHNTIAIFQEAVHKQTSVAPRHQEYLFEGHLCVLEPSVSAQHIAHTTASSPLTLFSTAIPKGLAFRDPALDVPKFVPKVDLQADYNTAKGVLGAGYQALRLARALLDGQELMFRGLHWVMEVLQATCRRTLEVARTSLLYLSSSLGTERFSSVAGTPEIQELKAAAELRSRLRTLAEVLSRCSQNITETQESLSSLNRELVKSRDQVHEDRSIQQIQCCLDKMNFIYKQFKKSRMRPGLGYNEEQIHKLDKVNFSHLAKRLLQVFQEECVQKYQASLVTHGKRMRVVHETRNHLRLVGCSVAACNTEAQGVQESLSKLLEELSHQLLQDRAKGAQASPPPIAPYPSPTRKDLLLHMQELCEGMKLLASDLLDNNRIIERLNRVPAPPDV
Procedure: as §1, with “C.” for “C. in Heidolph incubator”, “bufferread” for “buffer using multidrop dispenserread”, “IKKε. jobRaw” for “TBK1.jobRaw”

COc1nc(Nc2cc(-c3ccc(O[C@@H]4CCN(C(=O)[C@@H](C)O)CC4(F)F)c(C#N)c3)ncn2)ccc1N1CCN(C2COC2)CC1 [US11440899, Example 96]
IC50 [1]: < 100 nM
IC50 [2]: < 100 nM
